Values joined by “and” are separate entries in the source; they are usually repeats but may differ in a detail not shown here. Equal values may be shown once.

This assay in a line: Comparative clinical study: bone mineral density by dual-energy X-ray absorptiometry at vertebrae (L2-L4) and femoral neck. The format is in vivo, postmenopausal women. Particulars: 48 months; for increase in bone mineral density in the vertebrae (mean percentage change) / increase in bone mineral density in the femoral neck: all subjects; for increase in bone mineral density in the femoral neck (percentage change) / increase in bone mineral density in the vertebrae (mean change from baseline): osteopenic/osteoporotic subjects; for mean change from baseline in BMD in vertebrae: subjects with normal BMD at baseline. From the text:
The subjects used in the study were 419 postmenopausal women, aged 45 to 65 years. Eligible women had to be at least 3 years postmenopausal with normal gynecological findings, an intact uterus and a body mass index of 30 or less. Major medical exclusion criteria included endometrial hyperplasia and pathological mammography findings, prior hormone-dependent malignancies, severe thyroid diseases, and other criteria typical for HRT studies. Excessive smokers and alcohol abusers were excluded. Otherwise the women were not required to change their daily diet or other lifestyle habits for the study period.
Subjects were randomly assigned to six treatment groups to receive one tablet daily containing one of the following dose combinations: 1 mg or 2 mg of estradiolvalerate (E2V) combined to 2.5 mg or 5 mg of medroxyprogestrone acetate (MPA) (Indivina®, Orion Corporation, Espoo, Finland).
Groups changing from 1 mg E2V to 2 mg E2V irrespective of the MPA (Group I and II) were pooled together. Groups receiving 1 mg of E2V throughout the study irrespective of the MPA dose (Group V and VI) were pooled together. Also groups receiving 2 mg of E2V throughout the study irrespective of the MPA dose (Group III and IV) were pooled together. Pooling was considered justified since MPA is not expected to affect the response of estrogen on bone mineral density (BMD).
The bone mineral densities at the vertebrae and the hip were measured using dual-energy X-ray absorptiometry (DPX) at baseline, 6-, 12-, 24, 36- and 48-month follow-up visits, and at premature discontinuation. The BMD from the hip was measured by three separate measurements at the femur neck, Ward's triangle, major trochanter and BMD from the vertebrae was measured at L2-L4. In addition, the area and bone mineral content (BMC) of vertebrae L2-L4 were determined.
Results were further analysed to compare the effect varying dosages on BMD in groups that had either normal, osteopenic or osteoporotic BMD value at baseline. Subjects were classified as osteopenic if the BMD was 0.90 to 1.08 g/cm^2 in vertebrae (L2-L4) and 0.68 to 0.86 g/cm^2 in femoral neck (corresponds to T score between −1 and −2.5 in Finnish population). BMD was regarded as normal if the values were above 1.08 g/cm^2 in vertebrae and above 0.86 g/cm^2 in femoral neck. Values below 0.90 g/cm^2 in vertebrae and below 0.68 /cm^2 in femoral neck were considered as osteoporotic.

[1] abbreviates: daily 1 mg E2V first 6 months then 2 mg E2V.

For `CCCCC(=O)O[C@H]1CC[C@H]2[C@@H]3CCc4cc(O)ccc4[C@H]3CC[C@]12C` [E2V, estradiol valerate], the “increase in bone mineral density in the vertebrae (mean percentage change)” value (“increase … (mean percentage change)” for short) (daily 1 mg E2V first 6 months then 2 mg E2V (Groups I+II pooled, with MPA)) stood at 8.9%; the “increase … (mean percentage change)” value (daily 1 mg E2V whole term (Groups V+VI pooled, with MPA)) came out at 6.2%; the “increase … (mean percentage change)” value (daily 2 mg E2V whole term (Groups III+IV pooled, with MPA)) stood at 7.4%. For the same molecule, the “increase in bone mineral density in the femoral neck” value was 4.2% and 4.3% under setting [1]; 2.9% (daily 1 mg E2V whole term); 2.9% (daily 2 mg E2V whole term). Moreover, the “increase in bone mineral density in the femoral neck (percentage change)” value stood at 6.4% under setting [1], 3.8% (daily 1 mg E2V whole term) and 3.5% (daily 2 mg E2V whole term). The “increase in bone mineral density in the vertebrae (mean change from baseline)” value by setting is: under setting [1], 9.4%; (daily 1 mg E2V whole term) 7.7%; (daily 2 mg E2V whole term) 7.3%. Also, the “mean change from baseline in BMD in vertebrae” value came to 8.3% under setting [1], 4.7% (daily 1 mg E2V whole term) and 7.5% (daily 2 mg E2V whole term).

Source of the values: patent US6846496B1, “Treatment of osteoporosis” (Orion Corporation, priority 1999, dated 2005).
